Measured values as given in publication PMC8776094, “Reactive Oxygen Species Production Is Responsible for Antineoplastic Activity of Osmium, Ruthenium, Iridium and Rhodium Half-Sandwich Type Complexes with Bidentate Glycosyl Heterocyclic Ligands in Various Cancer Cell Models” (International Journal of Molecular Sciences, 2022).

test: Determination of the distribution coefficients (logD), n-octanol/PBS; assay type: physicochemical; settings: n-octanol / PBS pH = 7.40, rt
Procedure: Before starting the experiments, n-octanol was saturated with an aqueous PBS solution (pH = 7.40) and vice versa. A solution of the appropriate complex (approximately 0.2–0.3 mg) in a mixture of 2.50 mL pre-saturated n-octanol and 2.50 mL pre-saturated PBS buffer was made, and the resulting mixture was then vigorously stirred for 3 days at rt. Based on our previous NMR stability experiments, this time is long enough to reach equilibrium among the various ionic complex species. Due to the lipophilic/hydrophilic features of the complexes, those with benzoyl protection could primarily be found in the n-octanol, while the complexes with O-peracetylated and O-deprotected ligands were in the aqueous PBS phase. The corresponding separated solution was centrifuged (ScanSpeed 406G instrument, 4000 RPM for 5 min) and the absorption of the ”stock solution” was determined (VWR UV-1600PC Spectrophotometer, 270–420 nm). Then, 2.00 mL of the stock solution was vigorously stirred with 16.00 mL of pre-saturated n-octanol or PBS solution. After one day had passed, the phases were separated, centrifuged, and the absorption of the solution was measured again. From the absorption difference of the stock solutions, the distribution coefficient (D) was determined using previously described formulae [71].

Structure (SMILES) | LogD
Cc1c(C)c(C)[c-](C)c1C.F[P-](F)(F)(F)(F)F.O=C(OCC1OC(n2cc(-c3ccccn3)nn2)C(OC(=O)c2ccccc2)C(OC(=O)c2ccccc2)C1OC(=O)c1ccccc1)c1ccccc1.[Cl][Ir+2] (mixture of isomers) [Ir-6] | 2.36
Cc1ccc(C(C)C)cc1.F[P-](F)(F)(F)(F)F.O=C(OCC1OC(c2nnc(-c3ccccn3)o2)C(OC(=O)c2ccccc2)C(OC(=O)c2ccccc2)C1OC(=O)c1ccccc1)c1ccccc1.[Cl][Os+] (mixture of isomers) [Os-3] | 3.32
Cc1ccc(C(C)C)cc1.F[P-](F)(F)(F)(F)F.O=C(OCC1OC(c2nnc(-c3ccccn3)o2)C(OC(=O)c2ccccc2)C(OC(=O)c2ccccc2)C1OC(=O)c1ccccc1)c1ccccc1.[Cl][Os+] (mixture of isomers) [Os-4] | 2.87
Cc1ccc(C(C)C)cc1.F[P-](F)(F)(F)(F)F.O=C(OC1COC(c2nnc(-c3ccccn3)o2)C(OC(=O)c2ccccc2)C1OC(=O)c1ccccc1)c1ccccc1.[Cl][Os+] (mixture of isomers) [Os-5] | 2.36
Cc1ccc(C(C)C)cc1.F[P-](F)(F)(F)(F)F.O=C(OCC1OC(n2cc(-c3ccccn3)nn2)C(OC(=O)c2ccccc2)C(OC(=O)c2ccccc2)C1OC(=O)c1ccccc1)c1ccccc1.[Cl][Os+] (mixture of isomers) [Os-6] | 2.33
